Patent US20030147850A1 (priority 2002, published 2003)

System: vesicular stomatitis virus (VSV)
Assay type: cell-based

Disodium succinate hexahydrate
CPE inhibition, % of IFN control: 0%
